Earlier results in US20090062369A1, “USE OF SECRETORY PHOSPHOLIPASE A2 (SPLA2) INHIBITORS TO DECREASE SPLA2 LEVELS” (priority 2007, published 2009).

Test system: sPLA2
Conditions: cited from earlier work

CCc1c(C(=O)C(N)=O)c2c(OCC(=O)O)cccc2n1Cc1ccccc1 [A-001, ((3-(2-Amino-1,2-dioxoethyl)-2-ethyl-1-(phenylmethyl)-1H-indol-4-yl)oxy)acetic acid]
mode of sPLA2 inhibition: competitively inhibits sPLA2
